Laboratory results taken from patent publication US6960566B1, “Compositions and methods for treatment of cancer” (The Wister Institute of Anatomy and Biology, priority 1998, dated 2005).
“Also recorded” adds a separate entry of the source. Values belong to the molecule of their own block, whether it stands above or below them.

Columns and labels:
BR55-2 [1] = experiment: ELISA, binding of MAb BR55-2 to monovalent peptide; settings: series of ELISA assays
Text: The Trp residue occupies a volume associated with the Fuca 1,3 moiety, and the Leu residue occupies the volume of the β Gal moiety and has the hydrophobic interaction of β Gal. The Tyr residue occupies a position not associated with LeY binding to B3. The computer modeling disclosed that the low energy binding mode conformation adopts a turn region similar to that observed for the YPY motif in binding to ConA [Kaur et al., 1997, J. Biol. Chem. 272:5539-5543]. This conformation lends itself to the Tyr residue of the peptide to potentially interact with several residues in CDR2 of the heavy chain of B3 that include Asp H53, Ser H52, Ser H55, or Ser H56.

[2] = test system: neutrophil influx into chemically irritated peritoneum; experiment: Neutrophil recruitment in Zymosan-induced peritonitis (acute inflammation model in vivo); settings: mice, Zymosan i.p.
Description: The accumulation of neutrophils is a characteristic feature of acute and chronic inflammatory disease, and early steps in the recruitment of these cells to the site of inflammation depends upon E-selectin-mediated interaction. Thus, inhibition of neutrophil recruitment in vivo is an important test of the ability of potential therapeutic agents to inhibit E-selectin-mediated events. […] Because SA-Le^a binds to E-selectin, the adhesion-blocking ability of an SA-Le^a peptido-mimetic was measured in a neutrophil-recruitment in vivo model of acute inflammation.
The bioactivity of the 12-mer peptide SEQ ID NO: 1 which mimics the SA-Le^a carbohydrate structure was determined by administering Zymosan™ intraperitoneally (i.p.) into mice [see, e.g., Martens et al. 1995, J. Biol. Chem. 270:21129-21136; Rao et al. 1994, J. Biol. Chem. 269:19663-19666], followed three hours later by an intravenous (i.v.) injection of peptide SEQ ID NO: 1 (1 mg). Neutrophils were harvested and counted one hour later.
Derm. 78:206-209]. […] The reduction in enzyme activity is apparently due to reduction in neutrophil recruitment in mice treated with peptide mimicking E-selectin ligand SA-Le^a. This peptide inhibits E-selectin function in vivo.

MAb NS19-9 [3] = experiment: ELISA, direct binding of MAb NS19-9 to peptide
MAb NS19-9 [4] = experiment: Competition ELISA: peptide inhibition of MAb NS19-9 binding to solid phase SA-Le^a-PAA
Description: The peptide competition/inhibition assays referred to throughout the following examples are performed as follows: Test peptides at concentrations ranging from 10 nM to 1 mM were preincubated with 100 μl of the MAb NS19-9 (5 μg/ml) diluted in 10% […] free horse serum/PBS at room temperature. Fifty μl of preincubated inhibition complex antibody-peptide is added to each well of 96-well plate and incubated at 30-37° C. for 1 hour. After 1 hour of incubation, MAb/peptide complex mixtures were transferred to wells precoated with a constant amount of neoglycoprotein containing coupled multivalent carbohydrate determinant (SA-Le^a-polyacrylamide matrix (SA-LeX-PAA or LeY-PAA) (5 μg/well) and allowed to bind for 1 hour followed by blocking with 10% γ-globulin-free horse serum for 2 hours at room temperature. Wells were washed with 100 μl PBS four times. Goat anti-mouse immunoglobulin G conjugated to horse radish peroxidase (Boehringer-Manheim, Indianapolis, Ind.) was diluted 1000-fold with 10% γ-globulin free horse serum/PBS and 100 μl was added in each well and incubated at 30-37° C. for 1 hour and washed with 100 μl PBS five times. […] The developed blue color was read at 450 nm after stopping the reaction with 100 μl 1M phosphoric acid. Fifty % inhibitory concentration (IC50) was calculated by non-linear least-squares regression to a four-parameter logistic equation. […]

MAb BR15-6A = experiment: Inhibition of MAb BR15-6A binding to LeY carbohydrate
Description: The peptide competition/inhibition assays referred to throughout the following examples are performed as follows: Test peptides at concentrations ranging from 10 nM to 1 mM were preincubated with 100 μl of the MAb NS19-9 (5 μg/ml) diluted in 10% […] free horse serum/PBS at room temperature. Fifty μl of preincubated inhibition complex antibody-peptide is added to each well of 96-well plate and incubated at 30-37° C. for 1 hour. […] The developed blue color was read at 450 nm after stopping the reaction with 100 μl 1M phosphoric acid. Fifty % inhibitory concentration (IC50) was calculated by non-linear least-squares regression to a four-parameter logistic equation. […]
Peptide SEQ ID NO: 99 from the family of LeY-mimicking peptides was selected because it contained a consensus motif which appeared in multiple bacterial isolates after five rounds of panning with the BR15-6A MAb. This peptide was chemically synthesized and its binding to BR15-6A MAb was evaluated. […] This peptide is further evaluated in competition assays with native LeY containing neoglycoprotein and LeY-specific MAbs BR15-6A and BR55-2.

BR15-6A MAb = experiment: ELISA, binding of MAb BR15-6A to solid phase coated peptide; settings: solid phase coated peptide at 1 nM to 1 mM
Description: Peptide SEQ ID NO: 99 from the family of LeY-mimicking peptides was selected because it contained a consensus motif which appeared in multiple bacterial isolates after five rounds of panning with the BR15-6A MAb. This peptide was chemically synthesized and its binding to BR15-6A MAb was evaluated. […] It likely represents a conformational mimic of the LeY structure. This peptide is further evaluated in competition assays with native LeY containing neoglycoprotein and LeY-specific MAbs BR15-6A and BR55-2.

BR55-2 [5] = experiment: Competition of peptide with LeY for BR55-2 binding
MAb NS19-9 [6] = experiment: competition ELISA; peptide preincubated with MAb NS19-9, free MAb binding to SA-Le^a-PAA

binding of BR55-2 to monovalent peptide (in words) (BR55-2 [1]): does not bind
Molecule: APWLYGPA (peptido-mimetic of a Lewis antigen) [SEQ ID NO: 121]

Molecule: DLWDWVVGKPAG [SEQ ID NO: 1]
myeloperoxidase activity in collected cells (in words) ([2]; 1 mg peptide i.v.): Significant reduction of enzymatic activity | number of neutrophils in peritoneal lavage fluids (in words) ([2]; 1 mg peptide i.v. three hours later, harvest one hour later): reduced the number of neutrophils; also recorded: reduction of neutrophil influx; also recorded: partially inhibit neutrophil recruitment | binding of MAb NS19-9 to peptide (in words) (MAb NS19-9 [3]): dose-dependent binding | blocking of MAb NS19-9 binding to SA-Le^a-PAA (in words) (MAb NS19-9 [4]): blocked the binding of MAb NS 19-9 | IC50 (MAb NS19-9 [4]; MAb NS19-9 5 μg/ml, solid phase SA-Le^a-PAA, read-out: IC50, blocking of MAb NS19-9 binding to SA-Le^a-PAA): 700 µM

inhibition of MAb BR15-6A binding to LeY (in words) (MAb BR15-6A): inhibit MAb BR15-6A binding | binding of MAb BR15-6A to peptide (in words) (BR15-6A MAb): Dose-dependent binding
Molecule: DEVRPDLISTEE (peptido-mimetic of a Lewis antigen) [SEQ ID NO: 99]

competition with LeY for BR55-2 binding (in words) (BR55-2 [5]): competes with LeY for BR55-2 binding
Molecule: FSLLW (peptido-mimetic of a Lewis antigen) [SEQ ID NO: 114]

IC50 (MAb NS19-9 [6]): 700 µM
Molecule: DLWDWVVGKPAG [peptide …]
